“And” between values parts separate entries of the source, which are not always exact repeats. Identical values can stand only once. Like-named read-outs stand apart in the source and are kept apart here.
Columns and labels:
[1] = molecular target: T1, MitM (Streptomyces lavendulae, UniProt Q9X5Q9); format: biochemical, S. lavendulae; conditions: Example 4; with SAM
[2] = molecular target: MitN (Streptomyces lavendulae, UniProt Q9X5Q8); assay: Enzyme assay and kinetic measurement, aziridine N-methyltransferase (Example 5); format: biochemical, S. lavendulae; conditions: for conversion of candidate substrate by MitN: in the presence of SAM, TLC/HPLC
Description: (§1) pDHS7801 and pDHS7802 were transforned into E. coli BL21 (DE3) strain for the overexpression of MitM and MitN, respectively. E. coli cells were grown at 37° C. in NZCM broth containing 50 μg/ml kanamycin until OD600=0.6. Expression of MitM (or MitN) was induced by adding IPTG to a final concentration of 0.1 mM and reducing the temperature to 25° C. After incubating the culture overnight, cells were harvested, suspended in ice-cooled lysis buffer (50 mM NaH2PO4, pH 8.0; 300 mM NaCl; 10 mM imidazole), and lysed by sonication (6×10 seconds with 10 second pauses at 200-300 W). The supernatant collected by centrifuging the lysate at 10,000 g at 4° C. was used to pass through a Qiagen Ni-NTA column as specified by the manufacturer. The column was […] twice with wash buffer (50 mM NaH2PO4, pH 8.0; 300 mM NaCl; 20 mM imidazole) followed by dissolving the protein in elution buffer (50 mM NaH2PO4, pH 8.0; 300 mM NaCl; 250 mM imidazole). The protein eluted from the column was then precipitated with 60% ammonia sulfate, desalted by passing through a Pharmacia PD-10 column, and dissolved in 50 mM pH7.4 potassium buffer with 1 mM PMSF. The protein concentration was determined using the Bradford Assay with BSA as the standard.
(§2) The reactions were incubated at 30° C. for 30 minutes and were terminated by twice equal volume of ethyl acetate extraction.
(§3) The calculations were carried out using Kcat computer program by fitting the data to a Michaelis-Menton equation by linear regression.

[3] = molecular target: T1, MitM; assay: as above; format: biochemical, S. lavendulae; conditions: for conversion of candidate substrate by MitM: in the presence of SAM, TLC/HPLC
Description: as §1, §2, §3

[4] = test system: E. coli strain PJS103 (mct-mrd co-expressing)
Description: Construction of mct-mrd co-expression plasmid. […] The fragment contained the mrd gene under the control of the T7 promoter, including transcriptional terminator sequences (rrnB T1) upstream and downstream of mrd.
(§4) The cultures were grown overnight at 37° C. and colony-forming units (CFUs) were determined.

[5] = test system: S. lavendulae wild-type; assay: Resistance of S. lavendulae strains to MC, plate count; format: cell-based, Streptomyces lavendulae
Description: To establish a physiological role for MCT in S. lavendulae, the corresponding gene (mct) was inactivated by insertion of the aphII gene from transposon Tn5 to give pDHS7704.

[6] = test system: E. coli strain PJS103; assay: [^3H]-MC uptake assay; format: cell-based
Description: (§5) [^3H]-MC uptake assay of strains PJS102 and PJS103. [^3H]-MC was obtained from Kyowa Hakko Kogyo, Ltd. Uptake studies were performed for whole cells of PJS100, PJS102, PJS103 and E. coli BL21 (DE3)::pT7SC and pET17b. PJS100, PJS102, and PJS103 as well as vectoronly cultures were cultured (37° C.) in 5 ml of NCZYM medium with IPTG added to a final concentration of 1 mM (at approximately 3 hours growth). At 9 hours (late exponential phase), cells were harvested by centrifugation and resuspended in 1 ml NCZYM broth (5×concentration). The concentrated suspension of late-exponential growth phase cells was exposed to [^3H]-MC (59 Ci/mmol) at a final concentration of 0.022 μg/ml (0.0655 nmol). Aliquots (100 μl) were removed at frequent intervals, placed on […] GF/C filters (Whatman International, Maidstone, U.K.) and washed once with 6 ml of 0.85% NaCl poured over the filters under vacuum pressure. Additional aliquots were simultaneously removed for determination of protein content (protein assay kit, Bio-Rad Laboratories, Richmond, Calif.). Radioactivity on the filters was quantified using a Beclkan LS7000 scintillation counter. Results were expressed as nanograins of mitomycin per milligram of cell protein.
(§6) MC uptake by E. coli cells expressing mct, mrd or mct/mrd. Since the deduced amino acid sequence of the mct gene was similar to antibiotic export proteins, reduced accumulation of MC in MCT-expressing cells would be expected. An assay, modeled after experiments used to study tetracycline efflux-mediated resistance in E. coli (Levy and McMurry, 1978), was designed to study the uptake of [^3H]-MC by the susceptible vector control and resistant mct, mrd and mct/mrd expressing E. coli strains.

[7] = test system: E. coli strain PJS102; assay: [^3H]-MC uptake assay; format: cell-based; conditions: at 5 minutes; [^3H]-MC 0.022 μg/ml
Description: as §5, §6

[8] = test system: E. coli BL21(DE3)::pET17b vector control strain; assay: [^3H]-MC uptake assay; format: cell-based; conditions: [^3H]-MC 0.022 μg/ml
Description: as §5, §6

[9] = test system: E. coli strain PJS100; assay: [^3H]-MC uptake assay; format: cell-based; conditions: at 30 minutes
Description: as §5, §6

[10] = test system: E. coli strain PJS102 (mct expressing); assay: MC resistance phenotype of E. coli, plate count; format: cell-based
Description: Construction of mct expression plasmid. For the construction of the E. coli expression plasmid NdeI and HindIII sites were introduced at the translational start codon and downstream of the translational stop codon of mct, respectively. […] The PCR was carried out using 2.5 U of Taq polymerase, 0.4 μg of each primer, 1 μg of pDHS7661 DNA as template, […] each of dATP-dGTP-dCTP-dTTP, 1.5 mM MgCl2, and 10 μl of 10×Promega PCR buffer in a total volume of 100 μl .
as §4

[11] = test system: E. coli strain PJS100 (mrd expressing); assay: MC resistance phenotype of E. coli, plate count; format: cell-based
Description: MC resistance phenotppe of E. coli.

[12] = test system: E. coli BL21 (DE3)::pET17b (vector control)
Description: as §4

[13] = molecular target: carminomycin O-methyltransferase (CMT) (Streptomyces sp., UniProt Q55216); conditions: read-out: Km for SAM; cited from earlier work
[14] = test system: 31-O-desmethylimmunomycin O-methyltransferase (DIMT); conditions: read-out: Km for SAM; cited from earlier work
[15] = molecular target: macrocin O-methyltransferase (MOMT) (Streptomyces fradiae, UniProt Q9S4D5); conditions: read-out: Km for SAM; cited from earlier work
[16] = molecular target: 31-O-demethylFK506 O-methyltransferase (FKMT) (Streptomyces tacrolimicus, UniProt P74838); conditions: read-out: Km for SAM; cited from earlier work
[17] = molecular target: demethylmacrocin O-methyltransferase (DMOMT) (Streptomyces fradiae, UniProt Q9ZHQ4); conditions: read-out: Km for SAM; cited from earlier work
[18] = test system: C[S+](CC[C@H](N)C(=O)O)C[C@H]1O[C@@H](n2cnc3c(N)ncnc32)[C@H](O)[C@@H]1O; assay: purified protein, by the assay type

Compound: COC1=C(C)C(=O)C2=C(C1=O)[C@@H](COC(N)=O)[C@H]1[C@H]3N[C@H]3CN21 [9a-demethoxy mitomycin A]
- enzymatic conversion (methylation) by MitM [1]: methylate specifically the aziridine nitrogen

Compound: COC1=C(C)C(=O)C2=C(C1=O)[C@@H](COC(N)=O)[C@@]1(OC)[C@H]3N[C@H]3CN21 [MA, mitomycin A]
- Vmax for MA ([2]; MitN, pH 7.4, SAM fixed 200 μM): 75.9 ± 2.4 nmol/mg/min
- conversion of candidate substrate by MitN [2]: new product was formed
- Km ([2]; read-out: Km for MA, MitN, pH 7.4, SAM fixed 200 μM, MA 30-300 μM): 94.7 µM and 95 µM
- Vmax for MA ([3]; MitM, pH 7.4, SAM fixed 200 μM): 57.4 ± 4.2 nmol/mg/min
- conversion of candidate substrate by MitM [3]: new product was formed
- Km ([3]; read-out: Km for MA, MitM, pH 7.4, SAM fixed 200 μM, MA 30-300 μM): 169 µM
- enzymatic conversion (methylation) by MitM [1]: methylated at the aziridine nitrogen

Compound: CO[C@@]12[C@H](COC(N)=O)C3=C(C(=O)C(C)=C(N)C3=O)N1C[C@@H]1N[C@@H]12 [MC, mitomycin C]
- Plate count CFU/ml ([4]; MC 80 μg/ml): 1.4 × 10^5 CFU/ml
- Plate count CFU/ml ([4]; MC 100 μg/ml): 9.6 × 10^3 CFU/ml
- Plate count CFU/ml ([4]; MC 150 μg/ml): 3.0 × 10^1 CFU/ml
- MC resistance level of the wild-type S. lavendulae [5]: > 150 μg(ml
- Plate count CFU/ml ([5]; MC 40 μg/ml): 5.3 × 10^3 CFU/ml
- Plate count CFU/ml ([5]; MC 100 μg/ml): 2.0 × 10^3 CFU/ml
- conversion of candidate substrate by MitN [2]: no conversions were detected
- conversion of candidate substrate by MitM [3]: no conversions were detected
- enzymatic conversion (methylation) by MitM [1]: no conversion products were observed
- MC accumulation as % of E. coli cells bearing vector alone ([6]; at 5 minutes, [^3H]-MC 0.022 μg/ml): 35%
- MC accumulation, % greater than strain PJS102 ([6]; over the course of the experiment): about 23%
- MC accumulation as % of the susceptible control [7]: 25%
- time at which MC accumulation reaches maximum level [8]: 5 min
- MC accumulation, % higher than the drug-sensitive vector control [9]: 42%
- Plate count CFU/ml ([10]; MC 0.5 μg/ml): 2.1 × 10^5 CFU/ml
- Plate count CFU/ml ([10]; MC 1.0 μg/ml): 5.9 × 10^4 CFU/ml
- Plate count CFU/ml ([10]; MC 2.5 μg/ml): 2.0 × 10^2 CFU/ml
- Plate count CFU/ml ([10]; MC 5.0 μg/ml): 0.0 CFU/ml
- Plate count CFU/ml ([11]; MC 1.0 μg/ml): 3.3 × 10^6 CFU/ml
- Plate count CFU/ml ([11]; MC 5.0 μg/ml): 2.7 × 10^6 CFU/ml
- Plate count CFU/ml ([11]; MC 10 μg/ml): 6.1 × 10^5 CFU/ml
- Plate count CFU/ml ([11]; MC 20 μg/ml): 2.5 × 10^5 CFU/ml
- Plate count CFU/ml ([11]; MC 30 μg/ml): 5.0 × 10^2 CFU/ml
- Plate count CFU/ml ([11]; MC 60 μg/ml): 0.0 CFU/ml
- Plate count CFU/ml ([12]; MC 0.01 μg/ml): >10^7 CFU/ml
- Plate count CFU/ml ([12]; MC 0.1 μg/ml): 7.3 × 10^3 CFU/ml
- Plate count CFU/ml ([12]; MC 0.5 μg/ml): 3.2 × 10^2 CFU/ml
- Plate count CFU/ml ([12]; MC 1.0 μg/ml): 0.0 CFU/ml

Compound: CC1=C(N)C(=O)C2=C(C1=O)N1C[C@H]3[C@H](N3C)[C@]1(O)[C@H]2COC(N)=O (stereo partly shown) [MD, mitomycin D]
- conversion of candidate substrate by MitN [2]: no conversions were detected
- conversion of candidate substrate by MitM [3]: no conversions were detected
- enzymatic conversion (methylation) by MitM [1]: no conversion products were observed

Compound: C=C1C2=C(C(=O)C(C)=C(OC)C2=O)N2C[C@H]3[C@H](N3C)[C@]12O (stereo partly shown) [MH, mitomycin H]
- conversion of candidate substrate by MitN [2]: no conversions were detected
- conversion of candidate substrate by MitM [3]: no conversions were detected

Compound: COC1=C(C)C(=O)C2=C(C1=O)[C@H](COC(N)=O)[C@@]1(O)[C@@H]3[C@H](CN21)N3C (stereo partly shown) [Mitomycin B, mitomycin B]
- resistance of strain PJS103 to mitomycin B [4]: high-level resistance
- Plate count CFU/ml ([4]; Mitomycin B tested at a concentration of 15 μg/ml): >10^7d CFU/ml
- conversion of candidate substrate by MitN [2]: no conversions were detected
- conversion of candidate substrate by MitM [3]: no conversions were detected
- enzymatic conversion (methylation) by MitM [1]: no conversion products were observed
- Plate count CFU/ml ([11]; Mitomycin B tested at a concentration of 1.0 μg/ml): >10^7b CFU/ml

Compound: C[S+](CC[C@H](N)C(=O)O)C[C@H]1O[C@@H](n2cnc3c(N)ncnc32)[C@H](O)[C@@H]1O (stereo partly drawn) [SAM, S-adenosyl-L-methionine]
- Km [13]: 25 µM
- Km [14]: 13 µM
- Vmax for SAM ([2]; MitN, pH 7.4, MA fixed 200 μM): 49.4 ± 5.3 nmol/mg/min
- Vmax for SAM ([3]; MitM, pH 7.4, MA fixed 200 μM): 29.8 ± 4.5 nmol/mg/min
- Km [15]: 23 µM
- Km [16]: 28 µM
- Km [17]: 111 µM

Compound: MitM (Streptomyces lavendulae)
- Km ([18]; other: MitM, 400 μM mitomycin A, pH 7.0): 30 µM
- Km ([18]; other: MitM, pH 7.4, MA fixed 200 μM, SAM 40-400 μM, pH 7.4): 22.8 µM and 23 µM

Compound: MitN (Streptomyces lavendulae)
- Km ([18]; other: MitN, pH 7.4, MA fixed 200 μM, SAM 40-400 μM, pH 7.4): 86.6 µM and 87 µM

Compound: mitomycin G
- enzymatic conversion (methylation) by MitM [1]: no conversion products were observed

Reference: patent US20030134398A1, “Mitomycin biosynthetic gene cluster” (priority 2001, published 2003)
